Experimental findings from patent publication US10703764B2, “Benzopiperazine compositions as BET bromodomain inhibitors” (FORMA Therapeutics, Inc., priority 2013, dated 2020) are described below.

The target of experiment [1] is T1, BRD4 BD1 (Homo sapiens, UniProt O60885).
T1 construct: made in house
Kind of experiment: AlphaScreen binding assay, BRD4 Bromodomain 1. In a few lines: (§1)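 Compound dilution series were mixed with His-tagged BRD4 bromodomain and biotinylated tetra-acetylated H4 (1-21) peptide at pH 7.3 (BD1 and peptide at 50 nM, BD2 and peptide at 100 nM). Donor and acceptor beads were then added, and plates were equilibrated at least 1 h before reading. IC50 values were fitted with a four-parameter logistic model.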
(Bead proximity is the source of the signal in Alpha formats.)

Experiment [2] has as its target T2, BRD4 BD2 (Homo sapiens, UniProt O60885).
T2 construct: made in house
Kind of experiment: AlphaScreen binding assay, BRD4 Bromodomain 2. In a few lines:
as §1

For orientation: IC50 means the midpoint of a concentration-inhibition curve. A lower IC50 goes with higher potency. Regarding `CC(=O)N1c2ccc(-c3cnc(N)nc3)cc2N(C(=O)c2ccco2)C[C@@H]1C` [Example I-296], the IC50 fell in the range of 1 to 10 µM in experiment [1] and 50 to 500 nM in experiment [2].
With `COC(=O)N1c2ccc(-c3cnn(C4CNC4)c3)cc2N(C(=O)OC(C)C)C[C@@H]1C` [Example I-358], the IC50 in experiment [1] lay within 1 to 10 µM; in experiment [2], 50 to 500 nM.
Consider `COC(=O)N1c2ccc(-c3cnn(CC(=O)O)c3)cc2N(C(=O)OC(C)C)C[C@@H]1C` [Example I-341], for which the IC50 in experiment [1] was in the range of 1 to 10 µM; in experiment [2] it was 50 to 500 nM.
The matching figures for `CC(=O)N1c2ccccc2N(C(=O)c2ccco2)C[C@@H]1C` [Example I-720]: > 10 µM and 50 to 500 nM.
The matching figures for `CC(=O)N1c2ccc(-c3cccc4cnn(C)c34)cc2N(C(=O)c2ccco2)C[C@@H]1C` [Example I-842]: > 10 µM and > 500 nM.
On to `CC(=O)N1c2ccc(-c3ccc(C(F)(F)F)cc3)cc2N(C(=O)c2ccco2)C[C@@H]1C` [Example I-815], for which the values for the IC50 in experiment [1] and in experiment [2] were 1 to 10 µM and 50 to 500 nM, respectively.
Consider `CC(=O)N1c2ccccc2N(C(=O)[C@H](C)c2ccccc2)C[C@@H]1C` [Example I-715], for which the 50% inhibitory concentration (IC50) in experiment [1] is > 10 µM; in experiment [2], > 500 nM.
The corresponding values for `CC(=O)N1c2ccc(-c3ccc(S(C)(=O)=O)cc3)cc2N(C(=O)c2ccc(S(C)(=O)=O)o2)C[C@@H]1C` [Example I-888] are > 10 µM and > 500 nM.
Turning to `CC(=O)N1c2ccc(-c3ccc(S(C)(=O)=O)cc3)cc2N(C(=O)c2ccc(Oc3cc(Cl)cc(Cl)c3)o2)C[C@@H]1C` [Example I-880], the figures for the IC50 in experiment [1] and in experiment [2] were > 10 µM and > 500 nM, respectively.
On to `COc1ccc(S(=O)(=O)N2C[C@H](C)N(C(C)=O)c3ccccc32)cc1` [Example I-936], for which the IC50 in experiment [1] is > 10 µM; in experiment [2] it was > 500 nM.
On to `COC(=O)N1c2ccc(-c3cnc(N)cn3)cc2N(C(=O)C2CC2)C[C@@H]1C` [Example I-458], for which the values for the IC50 in experiment [1] and in experiment [2] were 1 to 10 µM and 50 to 500 nM, respectively.
The matching figures for `CC(=O)N1c2ccc(-c3cnn(C4CC4)c3)cc2N(C(=O)Oc2c(Cl)cc(Cl)c3cccnc23)C[C@@H]1C` [Example I-1197]: 1 to 10 µM and 50 to 500 nM.
The matching figures for `CCCn1cc(-c2cnc3c(c2)N(C(=O)c2ccco2)C[C@H](C)N3C(C)=O)cn1` [Example I-273]: 1 to 10 µM and > 500 nM.
As to `COc1cc(CN2C[C@H](C)N(C(C)=O)c3ccccc32)cc(OC)c1` [Example I-902], the IC50 in experiment [1] was > 10 µM; in experiment [2], > 500 nM.
The corresponding values for `CC(=O)N1c2ccc(-c3ccc4c(c3)CCN4S(C)(=O)=O)cc2N(C(=O)Oc2cccnc2)C[C@@H]1C` [Example I-1290] are 1 to 10 µM and 50 to 500 nM.
The corresponding values for `CCOC(=O)N1c2ccc(-c3ccc(S(C)(=O)=O)cc3)cc2N(C(=O)c2ccco2)C[C@@H]1C` [Example I-371] are > 10 µM and > 500 nM.
The corresponding values for `CC(C)OC(=O)N1C[C@H](C)N(C(C)C2CC2)c2ccc(-c3cnn(C4CNC4)c3)cc21` (stereo partly shown) [Example I-357] are 1 to 10 µM and 50 to 500 nM.
Regarding `CC(=O)N1c2ccccc2N(C(=O)Cc2ccc3c(c2)OCO3)C[C@@H]1C` [Example I-709], the IC50 in experiment [1] was > 10 µM; in experiment [2], > 500 nM.
For `COC(=O)N1c2ccc(-c3cnn(C4CCNCC4)c3)cc2N(C(=O)Oc2cccnc2)C[C@@H]1C` [Example I-1296], the IC50 lay in the range of 1 to 10 µM in experiment [1] and 50 to 500 nM in experiment [2].
Turning to `CC(=O)N1c2ccccc2N(C(=O)CC2CCCC2)C[C@@H]1C` [Example I-713], the IC50 is > 10 µM in experiment [1] and > 500 nM in experiment [2].
The matching figures for `CC(=O)N1c2ccc(-c3nnc(C)s3)cc2N(C(=O)c2ccco2)C[C@@H]1C` [Example I-403]: 1 to 10 µM and 50 to 500 nM.
`CC(=O)N1c2ccc(-c3cnn(C4COC4)c3)cc2N(C(=O)OCC2COC2)C[C@@H]1C` [Example I-64, (S)-oxetan-3-ylmethyl 4-acetyl-3-methyl-7-(1-(oxetan-3-yl)-1H-pyrazol-4-yl)-3,4-dihydroquinoxaline-1(2H)-carboxylate]: the IC50 in experiment [1] was in the range of 1 to 10 µM; in experiment [2], 50 to 500 nM.
The corresponding values for `C[C@H]1CN(C(=O)C2CC2)c2cc(-c3ccc(S(=O)(=O)CCO)cc3)ccc2N1C(=O)C1CC1` [Example I-450] are 1 to 10 µM and 50 to 500 nM.
For `CC(=O)N1c2ccc(-c3ccc(NS(C)(=O)=O)cc3)cc2N(C(=O)Oc2cccnc2)C[C@@H]1C` [Example I-1277], the figures for the IC50 in experiment [1] and in experiment [2] were 1 to 10 µM and 50 to 500 nM, respectively.
The matching figures for `CC(=O)N1c2ccc(-c3ccc(S(C)(=O)=O)cc3)cc2N(C(=O)c2csnn2)C[C@@H]1C` [Example I-783]: 1 to 10 µM and > 500 nM.
In the case of `C[C@H]1CN(C(=O)c2ccco2)c2cc(-c3ccc(S(C)(=O)=O)cc3)ccc2N1C(=O)N1CCCC1` [Example I-376], the IC50 in experiment [1] is > 10 µM; in experiment [2], > 500 nM.
As for `CC(=O)N1c2ccc(-c3cnn(-c4ccccc4)c3)cc2N(C(=O)OC(C)C)C[C@@H]1C` [Example I-334], the IC50 in experiment [1] was 1 to 10 µM; in experiment [2], > 500 nM.
In the case of `CC(=O)N1c2ccc(Oc3ccccc3)nc2N(C(=O)C2CC2)C[C@@H]1C` [Example I-97, (S)-1-(4-(cyclopropanecarbonyl)-2-methyl-6-phenoxy-3,4-dihydropyrido[2,3-b]pyrazin-1(2H)-yl)ethanone], the IC50 in experiment [1] was > 10 µM; in experiment [2], > 500 nM.
On to `CC(=O)N1c2ccc(-c3ccc(Oc4ccccc4)cc3)cc2N(C(=O)c2ccco2)C[C@@H]1C` [Example I-813], for which the IC50 lay in the range of 1 to 10 µM in experiment [1] and 50 to 500 nM in experiment [2].
For `CC(=O)N1c2ccccc2N(S(=O)(=O)Cc2ccccc2)C[C@@H]1C` [Example I-954], the values for the IC50 in experiment [1] and in experiment [2] were > 10 µM and > 500 nM, respectively.
The corresponding values for `COC(=O)N1c2ccc(-c3ccc(NS(C)(=O)=O)cc3)cc2N(C(=O)Oc2ccccn2)C[C@@H]1C` [Example I-1317] are 1 to 10 µM and 50 to 500 nM.
The matching figures for `COC(=O)N1c2ccc(-c3ccc(S(C)(=O)=O)cc3)cc2N(C(=O)Oc2cccnc2)C[C@@H]1C` [Example I-1276]: 1 to 10 µM and 50 to 500 nM.
Take `COC(=O)N1c2ccc(-c3cnn(C4CCNCC4)c3)cc2N(C(=O)Oc2ccccn2)C[C@@H]1C` [Example I-1333]: the IC50 in experiment [1] fell in the range of 1 to 10 µM; in experiment [2], 50 to 500 nM.
For `CC(=O)N1c2ccc(-c3cncc(Cl)c3)cc2N(C(=O)c2ccco2)C[C@@H]1C` [Example I-832], the figures for the IC50 in experiment [1] and in experiment [2] were 1 to 10 µM and 50 to 500 nM, respectively.
As for `CC(=O)N1c2ccccc2N(C(=O)c2ccc(Oc3ccccc3)cc2)C[C@@H]1C` [Example I-742], the IC50 in experiment [1] is > 10 µM; in experiment [2], > 500 nM.
In the case of `CC(=O)N1c2ccc(-c3cnn(C4CC4)c3)cc2N(C(=O)Oc2cnc3ccccc3c2)C[C@@H]1C` [Example I-1203], the 50% inhibitory concentration (IC50) in experiment [1] is 1 to 10 µM; in experiment [2] it was 50 to 500 nM.
The matching figures for `CC(=O)N1c2ccc(-c3ccc(S(C)(=O)=O)cc3)cc2N(C(=O)N(C)C)C[C@@H]1C` [Example I-248]: > 10 µM and 50 to 500 nM.
As to `CC(=O)N1c2ccccc2N(C(=O)c2ccc3nccn3c2)C[C@@H]1C` [Example I-776], the IC50 in experiment [1] was > 10 µM; in experiment [2] it was > 500 nM.
The corresponding values for `CC(=O)N1c2ccc(-c3ccc(S(C)(=O)=O)cc3)cc2N(C(=O)c2ccc(CN)o2)C[C@@H]1C` [Example I-890] are 1 to 10 µM and 50 to 500 nM.
Consider `CNC(=O)c1ccc(-c2ccc3c(c2)N(C(=O)c2ccco2)C[C@H](C)N3C(C)=O)cn1` [Example I-836], for which the IC50 in experiment [1] is 1 to 10 µM; in experiment [2] it was < 50 nM.
For the compound `CC(=O)N1c2ccccc2N(Cc2nccs2)C[C@@H]1C` [Example I-915], the results for the IC50 in experiment [1] and in experiment [2] were > 10 µM and > 500 nM, respectively.
The matching figures for `CC(=O)N1c2ccc(-c3ccc(C#N)cc3)cc2N(C(=O)c2ccco2)C[C@@H]1C` [Example I-811]: 1 to 10 µM and < 50 nM.
The corresponding values for `COC(=O)N1c2ccc(-c3cnn(CCO)c3)cc2N(C(=O)Oc2cccnc2)C[C@@H]1C` [Example I-1282] are 1 to 10 µM and > 500 nM.
In the case of `CC(=O)N1c2ccccc2N(Cc2ccc(OC(C)C)cc2)C[C@@H]1C` [Example I-917], the values for the IC50 in experiment [1] and in experiment [2] were > 10 µM and > 500 nM, respectively.
Regarding `CC(=O)N1c2ccc(-c3cccc(-c4ncccn4)c3)cc2N(C(=O)c2ccco2)C[C@@H]1C` [Example I-405], the IC50 in experiment [1] is 1 to 10 µM; in experiment [2], 50 to 500 nM.
The corresponding values for `CC(=O)N1c2ccc(-c3ccc(Cl)cc3)cc2N(C(=O)c2ccco2)C[C@@H]1C` [Example I-805] are 1 to 10 µM and 50 to 500 nM.
The corresponding values for `CC(=O)N1c2ccc(-c3ccc(S(C)(=O)=O)cc3)cc2N(C(=O)NCc2ccco2)C[C@@H]1C` [Example I-980] are > 10 µM and > 500 nM.
The corresponding values for `CC(=O)N1c2ccccc2N(Cc2ccccc2OCCN(C)C)C[C@@H]1C` [Example I-906] are > 10 µM and 50 to 500 nM.
As to `CC(=O)N1c2ccc(-c3ccc(S(C)(=O)=O)cc3)cc2N(c2nccc(-c3ccccc3)n2)C[C@@H]1C` [Example I-49, (S)-1-(2-methyl-6-(4-(methylsulfonyl)phenyl)-4-(4-phenylpyrimidin-2-yl)-3,4-dihydroquinoxalin-1(2H)-yl)ethanone], the IC50 was 1 to 10 µM in experiment [1] and > 500 nM in experiment [2].
The corresponding values for `CC(=O)N1c2ccc(-c3cnn(CCN4CCCC4=O)c3)cc2N(C(=O)C2CC2)C[C@@H]1C` [Example I-660] are 1 to 10 µM and 50 to 500 nM.
